Source: US20260070899A1, “N-(2-(4-CYANOTHIAZOLIDIN-3-YL)-2-OXOETHYL)-QUINOLINE-4-CARBOXAMIDES” (AstraZeneca AB, priority 2022, published 2026)

How the values were obtained:
hFAP (M39-A757) = target: T1, hFAP (M39-A757) (Homo sapiens, UniProt Q12884); test: biochemical;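 further: surface plasmon resonance direct binding to hFAP amine-coupled on a sensor chip, rising compound concentrations by single cycle kinetics, Kd from global fit of interaction models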
T1 sequence (Q12884 39-757): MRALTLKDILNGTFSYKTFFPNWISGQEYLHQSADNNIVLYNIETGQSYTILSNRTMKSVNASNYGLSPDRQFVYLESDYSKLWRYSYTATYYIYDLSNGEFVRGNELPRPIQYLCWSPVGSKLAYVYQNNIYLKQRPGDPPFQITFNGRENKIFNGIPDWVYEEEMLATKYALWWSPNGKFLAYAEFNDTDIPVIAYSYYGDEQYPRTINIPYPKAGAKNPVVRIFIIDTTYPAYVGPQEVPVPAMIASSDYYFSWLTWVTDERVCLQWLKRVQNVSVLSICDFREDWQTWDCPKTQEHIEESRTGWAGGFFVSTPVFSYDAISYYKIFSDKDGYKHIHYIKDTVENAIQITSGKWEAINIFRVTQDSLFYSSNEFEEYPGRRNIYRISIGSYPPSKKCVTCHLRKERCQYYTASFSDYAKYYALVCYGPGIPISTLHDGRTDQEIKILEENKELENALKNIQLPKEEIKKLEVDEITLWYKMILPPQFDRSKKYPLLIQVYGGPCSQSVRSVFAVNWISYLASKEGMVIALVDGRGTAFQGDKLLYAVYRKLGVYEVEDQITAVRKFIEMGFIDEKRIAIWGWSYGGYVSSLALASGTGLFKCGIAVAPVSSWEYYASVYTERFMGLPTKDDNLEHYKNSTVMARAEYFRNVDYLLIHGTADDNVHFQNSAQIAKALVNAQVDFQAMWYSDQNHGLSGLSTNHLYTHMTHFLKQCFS
Description: Compounds were tested in a direct binding assay using 8K surface plasmon resonance biosensor (GE Healthcare) at 20° C. Immobilization of hFAP (M39-A757) on a CMD200M sensor chip (Xantec) was performed using standard amine coupling procedure in immobilization buffer (10 mM HEPES, 150 mM NaCl, 0.05% Tween20, pH 7.4). The surface was washed with 10 mM aq NaOH, 1M NaCl before being activated with EDC/NHS (GE Healthcare), followed by immobilization of hFAP (in 10 mM Acetate pH 5.0). Finally, the surface was deactivated by ethanolamine. Immobilization levels of hFAP were around 4000-6000 RU. The reference spot was treated as described, omitting the injection of hFAP. Compound concentration series were injected over the immobilized protein in increasing concentrations (2-500 nM) using single cycle kinetics in running buffer (20 mM TRIS, 150 mM NaCl, 0.05% Tween20, 1% DMSO, pH 7.4). Interaction models were fitted globally to the experimental traces, enabling determination of kon, koff and Kd.

[1] = target: T2, Prolyl endopeptidase, Prolyl Oligopeptidase (hPREP) (Homo sapiens, UniProt P48147); test: biochemical
T2 sequence (P48147 1-710): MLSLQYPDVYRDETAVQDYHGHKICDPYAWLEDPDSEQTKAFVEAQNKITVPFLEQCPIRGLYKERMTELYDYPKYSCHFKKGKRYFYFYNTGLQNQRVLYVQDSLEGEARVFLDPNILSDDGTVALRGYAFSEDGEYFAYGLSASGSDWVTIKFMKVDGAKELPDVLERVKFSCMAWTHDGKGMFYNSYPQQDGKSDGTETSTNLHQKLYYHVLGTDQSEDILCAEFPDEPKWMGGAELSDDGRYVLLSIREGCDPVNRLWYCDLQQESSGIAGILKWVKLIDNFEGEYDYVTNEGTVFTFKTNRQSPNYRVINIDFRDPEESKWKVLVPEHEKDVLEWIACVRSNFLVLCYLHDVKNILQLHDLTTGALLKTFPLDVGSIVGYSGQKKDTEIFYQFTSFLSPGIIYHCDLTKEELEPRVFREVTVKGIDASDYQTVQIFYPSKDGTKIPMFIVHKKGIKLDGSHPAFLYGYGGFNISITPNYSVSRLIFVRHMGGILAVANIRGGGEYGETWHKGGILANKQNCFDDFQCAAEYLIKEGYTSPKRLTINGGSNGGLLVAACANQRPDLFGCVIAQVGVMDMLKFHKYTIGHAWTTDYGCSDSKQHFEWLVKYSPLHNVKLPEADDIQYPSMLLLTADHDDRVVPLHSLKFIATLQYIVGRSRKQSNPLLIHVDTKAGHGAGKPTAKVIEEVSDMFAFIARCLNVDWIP
Description: Compounds were tested in a biochemical inhibition assay using Prolyl endopeptidase, Prolyl Oligopeptidase (hPREP) enzyme at 0.6 nM FAC (R&D Systems, 4308-SE) and the substrate Z-Gly-Pro-amino-methylcoumarin (Bachem, I-1145) at 50 μM FAC. 384 Low volume black plates (Greiner #784076) were used. […] Plates were incubated for 15 min at rt in dark. 4 μL, 100 μM substrate solution (25 mM Tris HCl, 250 mM NaCl, 0.01% Triton X-100, 5 mM Glutathione, pH 7.5) was added to each well. Plates were centrifuged at 1000 rpm and incubated for 20 min at rt in dark. The plates were read on a PHERAstar® reader with excitation 340 nm and emission 460 nm. Data were analyzed in Genedata Screener®. IC50 values were determined by plotting % inhibition versus log compound concentration and using a one site dose response model.

| Compound | Kd (hFAP (M39-A757)) | IC50 [1] |
| --- | --- | --- |
| N#C[C@@H]1CSCN1C(=O)CNC(=O)c1ccnc2ccc(C3CCCCO3)cc12 (mixture of isomers) [Example 32, N-(2-((R)-4-Cyanothiazolidin-3-yl)-2-oxoethyl)-6-((RS)-tetrahydro-2H-pyran-2-yl)quinoline-4-carboxamide] | 0.35 nM | 910 nM |
| CO[C@H]1CC[C@H](c2ccc3nccc(C(=O)NCC(=O)N4CSC[C@H]4C#N)c3c2)CC1 (single isomer, unassigned) [Example 78, N-(2-((R)-4-Cyanothiazolidin-3-yl)-2-oxoethyl)-6-((1r,4R*)-4-methoxycyclohexyl)quinoline-4-carboxamide] | 0.022 nM | 1000 nM |
| CC(C)(F)COc1ccc2nccc(C(=O)NCC(=O)N3CSC[C@H]3C#N)c2c1 [Example 3, (R)—N-(2-(4-Cyanothiazolidin-3-yl)-2-oxoethyl)-6-(2-fluoro-2-methylpropoxy)quinoline-4-carboxamide] | 0.062 nM | 950 nM |
| N#C[C@@H]1CSCN1C(=O)CNC(=O)c1ccnc2ccc(C3(O)CCOCC3)cc12 [Example 15, (R)—N-(2-(4-Cyanothiazolidin-3-yl)-2-oxoethyl)-6-(4-hydroxy-tetrahydro-2H-pyran-4-yl)quinoline-4-carboxamide] | 0.068 nM | 1100 nM |
| CC(C)(O)c1ccc2nccc(C(=O)NCC(=O)N3CSC[C@H]3C#N)c2c1 [Example 16, (R)—N-(2-(4-Cyanothiazolidin-3-yl)-2-oxoethyl)-6-(2-hydroxypropan-2-yl)quinoline-4-carboxamide] | 0.23 nM | 640 nM |
| COC(C)(C)c1ccc2nccc(C(=O)NCC(=O)N3CSC[C@H]3C#N)c2c1 [Example 18, (R)—N-(2-(4-Cyanothiazolidin-3-yl)-2-oxoethyl)-6-(2-methoxypropan-2-yl)quinoline-4-carboxamide] | 0.43 nM | 860 nM |
| N#C[C@@H]1CSCN1C(=O)CNC(=O)c1ccnc2ccc(C3CCOCC3)cc12 [Example 20, (R)—N-(2-(4-Cyanothiazolidin-3-yl)-2-oxoethyl)-6-(tetrahydro-2H-pyran-4-yl)quinoline-4-carboxamide] | 0.056 nM | 1000 nM |
| CCOC1(c2ccc3nccc(C(=O)NCC(=O)N4CSC[C@H]4C#N)c3c2)CCOCC1 [Example 23, (R)—N-(2-(4-Cyanothiazolidin-3-yl)-2-oxoethyl)-6-(4-ethoxytetrahydro-2H-pyran-4-yl)quinoline-4-carboxamide] | 0.059 nM | 1100 nM |
| N#C[C@@H]1CSCN1C(=O)CNC(=O)c1ccnc2ccc(C3(C#N)CC3)cc12 [Example 70, (R)-6-(1-Cyanocyclopropyl)-N-(2-(4-cyanothiazolidin-3-yl)-2-oxoethyl)quinoline-4-carboxamide] | 0.62 nM | 120 nM |
